US20240158392A1 (Janssen Biotech, Inc., priority 2021, published 2024)

Assays:
[1] = target: T1, SIK2 (Homo sapiens, UniProt Q9H0K1); assay: SIK2 Enzymatic Assay Version 1 (ADP Glo); assay type: biochemical; conditions: enzyme 0.6 nM, 160 μM ATP and 140 μM HDAC5tide (each 2× final concentration); 30 minutes pre-incubation, 4 hours; ADPGlo luminescence; read-out: SIK2 ADP Glo IC50 (μM) (Test Example 1)
Protocol: All steps were performed at room temperature. Compounds were pre-plated onto an assay plate using an Echo acoustic dispenser (Labcyte, E550 or E555) at 20 nL per well. Enzyme prepared in Assay Buffer at 0.6 nM (2× final concentration) was added at 2 μL per well using the Multidrop Combi (Thermo Fisher—used for all additions in this assay) to the assay plate, spun for 1 min at 800-850 rpm (Allegra 6KR Beckman Coulter centrifuge), and incubated with compound for 30 minutes.
One column of wells was dedicated to a no-peptide negative control (containing only ATP). ADPGlo Reagent (prepared and aliquoted as per manufacturer instructions) was then added at 2 μL per well, spun and incubated for 40 min. ADPGlo Detection (prepared and aliquoted as per manufacturer instructions) was added at 2 μL per well to the assay plate, which was spun and incubated for at least 30 min. The plate was then read on the Pherastar (BMG Labtech) using a luminescence read. Gain was set by the 0.1 mM concentration of ADP wells in the ADP/ATP standard curve plate generated as per manufacturer instructions.

[2] = target: T1, SIK2; assay: SIK2 Enzymatic Assay High Version 2 (High ATP); assay type: biochemical
Outline: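 At room temperature, enzyme (6 nM, 2× final) was preincubated with compound for 30 min, then 6 mM ATP and 400 μM HDAC5tide (both 2× final) were added for 2 h. ADP formed was measured by ADP-Glo Max (2 h reagent, 1 h detection) using luminescence.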

T1 sequence (Q9H0K1 whole entry, species assumed): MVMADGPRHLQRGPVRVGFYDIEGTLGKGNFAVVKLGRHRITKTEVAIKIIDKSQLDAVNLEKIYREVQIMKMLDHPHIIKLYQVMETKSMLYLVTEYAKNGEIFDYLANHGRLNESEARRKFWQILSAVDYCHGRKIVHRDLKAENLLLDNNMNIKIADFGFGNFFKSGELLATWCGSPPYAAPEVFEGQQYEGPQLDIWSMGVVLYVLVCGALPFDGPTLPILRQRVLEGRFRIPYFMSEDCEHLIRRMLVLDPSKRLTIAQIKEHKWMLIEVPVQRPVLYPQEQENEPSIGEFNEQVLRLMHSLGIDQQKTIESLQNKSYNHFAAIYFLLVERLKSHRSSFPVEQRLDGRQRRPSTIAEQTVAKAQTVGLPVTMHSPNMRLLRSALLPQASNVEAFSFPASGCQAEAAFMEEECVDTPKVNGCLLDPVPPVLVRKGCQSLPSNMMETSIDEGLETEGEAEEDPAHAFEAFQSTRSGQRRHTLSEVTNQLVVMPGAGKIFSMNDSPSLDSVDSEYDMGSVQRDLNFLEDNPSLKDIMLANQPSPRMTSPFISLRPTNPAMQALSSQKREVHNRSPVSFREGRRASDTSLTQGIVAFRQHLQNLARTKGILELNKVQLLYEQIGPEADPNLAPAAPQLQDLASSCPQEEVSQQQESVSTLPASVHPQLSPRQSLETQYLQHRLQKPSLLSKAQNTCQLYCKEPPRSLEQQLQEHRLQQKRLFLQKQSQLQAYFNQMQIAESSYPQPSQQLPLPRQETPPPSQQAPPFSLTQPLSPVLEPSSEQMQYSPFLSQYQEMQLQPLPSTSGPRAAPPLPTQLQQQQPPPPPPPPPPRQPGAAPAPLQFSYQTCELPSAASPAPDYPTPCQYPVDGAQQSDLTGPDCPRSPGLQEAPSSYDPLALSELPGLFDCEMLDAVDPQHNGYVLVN

Row | Compound | IC50 [1] | IC50 [2]
1 | N#Cc1cc(-c2ccn3nc(NC(=O)C4CC4)cc3c2)c(OCC2(N)CCC2)cn1 [Example 44, N-[5-[5-[(1-aminocyclobutyl)methoxy]-2-cyano-4-pyridyl]pyrazolo[1,5-a]pyridin-2-yl]cyclopropanecarboxamide] | 0.00124 µM | 26 nM
2 | CC1(C)CC(Oc2cnc(C#N)cc2-c2ccn3nc(NC(=O)C4CC4)cc3c2)CC(C)(C)N1 [Example 93, N-[5-[2-cyano-5-[(2,2,6,6-tetramethyl-4-piperidyl)oxy]-4-pyridyl]pyrazolo[1,5-a]pyridin-2-yl]cyclopropanecarboxamide] | 0.0359 µM | 1250 nM
3 | Cc1cc(-c2ccn3nc(NC(=O)C4CC4)cc3c2)c(O[C@H]2C[C@H]3CC[C@@H](C2)N3C)cn1 [Example 138, N-(5-(2-methyl-5-(((1R,3r,5S)-8-methyl-8-azabicyclo[3.2.1]octan-3-yl)oxy)pyridin-4-yl)pyrazolo[1,5-a]pyridin-2-yl)cyclopropanecarboxamide] | 0.000854 µM | 12.9 nM
4 | CN1CC[C@@H](COc2cnc(C#N)cc2-c2ccn3nc(Nc4ccccn4)cc3c2)C1 [Example 107, 5-[[(3R)-1-methylpyrrolidin-3-yl]methoxy]-4-[2-(2-pyridylamino)pyrazolo[1,5-a]pyridin-5-yl]pyridine-2-carbonitrile] | 0.0022 µM | 40.1 nM
5 | N#Cc1cc(-c2ccn3nc(NC(=O)C4CC4)cc3c2)c(OC[C@H]2C[C@@H](N)C2)cn1 [Example 175, N-(5-(5-(((1s,3s)-3-aminocyclobutyl)methoxy)-2-cyanopyridin-4-yl)pyrazolo[1,5-a]pyridin-2-yl)cyclopropanecarboxamide] | 0.000443 µM | 8.45 nM
6 | CNC1(COc2cnc(C)cc2-c2ccn3nc(NC(=O)C4CC4)cc3c2)CCC1 [Example 156, N-[5-[2-methyl-5-[[1-(methylamino)cyclobutyl]methoxy]-4-pyridyl]pyrazolo[1,5-a]pyridin-2-yl]cyclopropanecarboxamide] | 0.00369 µM | 78.8 nM
7 | N#Cc1cc(-c2ccn3nc(NC(=O)C4CC4)cc3c2)c(O[C@H]2C[C@@H](CO)C2)cn1 [Example 69, N-[5-[2-cyano-5-[3-(hydroxymethyl)cyclobutoxy]-4-pyridyl]pyrazolo[1,5-a]pyridin-2-yl]cyclopropanecarboxamide] | 0.0028 µM | 38.3 nM
8 | Cc1cc(-c2ccn3nc(NC(=O)C4CC4)cc3c2)c(O[C@@H]2CNC[C@H](C(F)(F)F)C2)cn1 (single isomer, unassigned) [Example 445, N-[5-[2-methyl-5-[[(3*S,5*R)-5-(trifluoromethyl)-3-piperidyl]oxy]-4-pyridyl]pyrazolo[1,5-a]pyridin-2-yl]cyclopropanecarboxamide] | 0.00109 µM | 11.6 nM
9 | N#Cc1cc(-c2ccn3nc(NC(=O)C4CC4)cc3c2)c(OC2CNC2)cn1 [Example 31, N-[5-[5-(azetidin-3-yloxy)-2-cyano-4-pyridyl]pyrazolo[1,5-a]pyridin-2-yl]cyclopropanecarboxamide] | 0.00705 µM | 111 nM
10 | CN1CCO[C@H](COc2cnc(C#N)cc2-c2ccn3nc(NC(=O)C4CC4)cc3c2)C1 [Example 39, N-[5-[2-cyano-5-[[(2S)-4-methylmorpholin-2-yl]methoxy]-4-pyridyl]pyrazolo[1,5-a]pyridin-2-yl]cyclopropanecarboxamide] | 0.00152 µM | 36 nM
11 | Cn1cc(Nc2cnc(C#N)cc2-c2ccn3nc(NC(=O)C4CC4)cc3c2)cn1 [Example 79, N-[5-[2-cyano-5-[(1-methylpyrazol-4-yl)amino]-4-pyridyl]pyrazolo[1,5-a]pyridin-2-yl]cyclopropanecarboxamide] | 0.389 µM | –
12 | N#Cc1cc(-c2ccn3nc(NC(=O)C4CC4)cc3c2)c(O[C@@H]2CNCCOC2)cn1 [Example 21, N-[5-[2-cyano-5-[[(6R)-1,4-oxazepan-6-yl]oxy]-4-pyridyl]pyrazolo[1,5-a]pyridin-2-yl]cyclopropanecarboxamide] | 0.0213 µM | –
13 | N#Cc1cc(-c2ccn3nc(NC(=O)C4CC4)cc3c2)c(O[C@H]2CCN[C@@H](C(F)(F)F)C2)cn1 (single isomer, unassigned) [Example 14, N-(5-(2-cyano-5-(((2*R,4*S)-2-(trifluoromethyl)piperidin-4-yl)oxy)pyridin-4-yl)pyrazolo[1,5-a]pyridin-2-yl)cyclopropanecarboxamide] | 0.0249 µM | –
14 | Cn1ccc(Nc2cnc(C#N)cc2-c2ccn3nc(NC(=O)C4CC4)cc3c2)n1 [Example 77, N-[5-[2-cyano-5-[(1-methylpyrazol-3-yl)amino]-4-pyridyl]pyrazolo[1,5-a]pyridin-2-yl]cyclopropanecarboxamide] | 0.242 µM | –
15 | CN1CC2(C1)CN(c1cnc(C#N)cc1-c1ccn3nc(NC(=O)C4CC4)cc3c1)C2 [Example 91, N-[5-[2-cyano-5-(2-methyl-2,6-diazaspiro[3.3]heptan-6-yl)-4-pyridyl]pyrazolo[1,5-a]pyridin-2-yl]cyclopropanecarboxamide] | 0.0688 µM | –
16 | CN(C)CC1CN(c2cnc(C#N)cc2-c2ccn3nc(NC(=O)C4CC4)cc3c2)C1 [Example 72, N-[5-[2-cyano-5-[3-(dimethylaminomethyl)azetidin-1-yl]-4-pyridyl]pyrazolo[1,5-a]pyridin-2-yl]cyclopropanecarboxamide] | 0.15 µM | –
17 | N#Cc1cc(-c2ccn3nc(NC(=O)C4CC4)cc3c2)c(OC[C@@H]2CC[C@@H](N)C2)cn1 [Example 22, N-[5-[5-[[(1R,3R)-3-aminocyclopentyl]methoxy]-2-cyano-4-pyridyl]pyrazolo[1,5-a]pyridin-2-yl]cyclopropanecarboxamide] | 0.00121 µM | –
18 | N#Cc1cc(-c2ccn3nc(NC(=O)C4CC4)cc3c2)c(O[C@H]2C[C@H]3C[C@@H]2CN3)cn1 (single isomer, unassigned) [Example 18, N-[5-[5-[[(1*R,4*R,5*S)-2-azabicyclo[2.2.1]heptan-5-yl]oxy]-2-cyano-4-pyridyl]pyrazolo[1,5-a]pyridin-2-yl]cyclopropanecarboxamide] | 0.00158 µM | –
19 | N#Cc1cc(-c2ccn3nc(NC(=O)C4CC4)cc3c2)c(O[C@H]2CNCCOC2)cn1 [Example 84, N-[5-[2-cyano-5-[[(6S)-1,4-oxazepan-6-yl]oxy]-4-pyridyl]pyrazolo[1,5-a]pyridin-2-yl]cyclopropanecarboxamide] | 0.014 µM | –
20 | CC(C)(C)OC(=O)N1CCC(COc2cnc(C#N)cc2-c2ccn3nc(NC(=O)C4CC4)cc3c2)C1 (stereo in doubt) [Example 35, tert-butyl (3R)-3-[[6-cyano-4-[2-(cyclopropanecarbonylamino)pyrazolo[1,5-a]pyridin-5-yl]-3-pyridyl]oxymethyl]pyrrolidine-1-carboxylate] | 0.0354 µM | –
21 | N#Cc1cc(-c2ccn3nc(NC(=O)C4CC4)cc3c2)c(N2CCC(O)(C(F)(F)F)C2)cn1 (racemic) [Example 87, (rac-)-N-[5-[2-cyano-5-[3-hydroxy-3-(trifluoromethyl)pyrrolidin-1-yl]-4-pyridyl]pyrazolo[1,5-a]pyridin-2-yl]cyclopropanecarboxamide] | 0.118 µM | –
22 | CO[C@H]1C[C@@H](Oc2cnc(C)cc2-c2ccn3nc(NC(=O)C4CC4)cc3c2)C1 [Example 147, cis-N-[5-[5-(3-methoxycyclobutoxy)-2-methyl-4-pyridyl]pyrazolo[1,5-a]pyridin-2-yl]cyclopropanecarboxamide] | 0.0124 µM | –
23 | Cc1cc(-c2ccn3nc(Nc4ccc(C(=O)NC5CC5)c(F)c4)cc3c2)c(OCC(C)(C)O)cn1 [Example 615, N-cyclopropyl-2-fluoro-4-[[5-[5-(2-hydroxy-2-methyl-propoxy)-2-methyl-4-pyridyl]pyrazolo[1,5-a]pyridin-2-yl]amino]benzamide] | 0.0117 µM | –
24 | N#Cc1cc(-c2ccn3nc(NC(=O)C4CC4)cc3c2)c(N2CC(CO)C2)cn1 [Example 3, N-[5-[2-cyano-5-[3-(hydroxymethyl)azetidin-1-yl]-4-pyridyl]pyrazolo[1,5-a]pyridin-2-yl]cyclopropanecarboxamide] | 0.0183 µM | –
25 | CC(C)(O)C1CN(c2cnc(C#N)cc2-c2ccn3nc(NC(=O)C4CC4)cc3c2)C1 [Example 74, N-[5-[2-cyano-5-[3-(1-hydroxy-1-methyl-ethyl)azetidin-1-yl]-4-pyridyl]pyrazolo[1,5-a]pyridin-2-yl]cyclopropanecarboxamide] | 0.00654 µM | –
26 | CN1CCOC[C@@H](Oc2cnc(C#N)cc2-c2ccn3nc(NC(=O)C4CC4)cc3c2)C1 [Example 26, N-[5-[2-cyano-5-[[(6S)-4-methyl-1,4-oxazepan-6-yl]oxy]-4-pyridyl]pyrazolo[1,5-a]pyridin-2-yl]cyclopropanecarboxamide] | 0.0123 µM | –
27 | COc1ncccc1-c1ccn2nc(NC(=O)C3CC3)cc2c1 [Example 748, N-[5-(2-methoxy-3-pyridyl)pyrazolo[1,5-a]pyridin-2-yl]cyclopropanecarboxamide] | 0.0965 µM | –
28 | Cc1cc(-c2ccn3nc(NC(=O)C4CC4)cc3c2)c(O[C@@H]2C[C@H]3CC[C@@H](C2)N3C)cn1 [Example 140, N-(5-(2-methyl-5-(((1R,3r,5S)-8-methyl-8-azabicyclo[3.2.1]octan-3-yl)oxy)pyridin-4-yl)pyrazolo[1,5-a]pyridin-2-yl)cyclopropanecarboxamide] | 0.0195 µM | –
